Test results taken from patent US20260070945A1, “MACROCYCLIC IMMUNOMODULATORS” (Bristol-Myers Squibb Company, priority 2022, published 2026).
Where a SMILES comes first, the peptide text is derived from it. Bridges are numbered along the chain shown (N, C = ends). [ ]: non-standard residue; d: D form. The star is where a group is joined. Phe(4-CH2CH2COOH) = N[C@@H](Cc1ccc(CCC(=O)O)cc1)C(=O)O; Trp(βS-Me) = C[C@@H](c1c[nH]c2ccccc12)[C@H](N)C(=O)O; Phe(4-COOH) = N[C@@H](Cc1ccc(C(=O)O)cc1)C(=O)O; Bip = N[C@@H](Cc1ccc(-c2ccccc2)cc1)C(=O)O; Phe(3-Me) = Cc1cccc(C[C@H](N)C(=O)O)c1; hPhe = N[C@@H](CCc1ccccc1)C(=O)O; Cha = N[C@@H](CC1CCCCC1)C(=O)O; Cit = NC(=O)NCCC[C@H](N)C(=O)O; Carboxymethyl = O=C(O)C*; NMeA = CN[C@@H](C)C(=O)O; Aun = NCCCCCCCCCCC(=O)O; Dab = NCC[C@H](N)C(=O)O; Dap = NC[C@H](N)C(=O)O; AEEA = NCCOCCOCC(=O)O; Ac3c = NC1(C(=O)O)CC1; Piv = CC(C)(C)C(=O)*

molecular target: T1, PD-1/PD-L1 interaction (PE-labeled human PD-L1-Ig binding to Jurkat cell line over-expressing human PD-1) (Homo sapiens, UniProt Q15116); experiment: Jurkat-PD-1 Cell Binding High-Content Screening Assay (CBA); conditions: Jurkat-hPD-1 cells, PE-labeled PD-L1-Ig 20 nM final; read-out: Jurkat HPD1 PDL1 IC50
T1 construct: expressed in transfected cells; host or cells: Jurkat
T1 sequence (Q15116 25-288): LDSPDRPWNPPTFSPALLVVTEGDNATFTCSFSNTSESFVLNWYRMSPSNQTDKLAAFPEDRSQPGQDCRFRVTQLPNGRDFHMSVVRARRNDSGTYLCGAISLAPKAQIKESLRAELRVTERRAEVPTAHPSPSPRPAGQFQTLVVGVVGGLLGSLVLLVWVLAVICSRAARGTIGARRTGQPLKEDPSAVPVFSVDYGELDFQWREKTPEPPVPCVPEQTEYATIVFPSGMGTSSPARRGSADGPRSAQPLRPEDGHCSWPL
Summary of the method: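 In this imaging assay, cells in 10% FCS medium see compound for 2 h at 37 °C and then labeled ligand at 20 nM final for 1 h. Paraformaldehyde fixation, Hoechst 33342 staining and dPBS washes precede image capture.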

Compared with `Cc1cccc(C[C@@H]2NC(=O)[C@H](CC(=O)O)NC(=O)[C@H](Cc3ccc(OCC(=O)O)cc3)NC(=O)[C@H](CN)NC(=O)CSC[C@@H](C(=O)N[C@@H](CCN)C(=O)NCCCCCCCCCCC(=O)O)NC(=O)[C@H](CO)NC(=O)[C@H](C(C)C)NC(=O)[C@H](CC3CCCCC3)NC(=O)[C@H](CCN)NC(=O)[C@@H](CC(C)C)NC(=O)[C@H](C)N(C)C(=O)[C@H](Cc3ccc(OCC(=O)O)cc3)NC(=O)[C@H](Cc3ccc(-c4ccccc4)cc3)NC(=O)[C@H](Cc3ccc(OCC(=O)O)cc3)NC2=O)c1` [Example 1263] ({CH2CO}-[Dap]Y(Carboxymethyl)D[Phe(3-Me)]Y(Carboxymethyl)[Bip]Y(Carboxymethyl)[NMeA][dL][Dab][Cha]VSC[Dab][Aun]-OH; thioether N-14), `Cc1cccc(C[C@@H]2NC(=O)[C@H](CC(=O)O)NC(=O)[C@H](Cc3ccc(OCC(=O)O)cc3)NC(=O)[C@H](Cc3ccc(OCC(=O)O)cc3)NC(=O)CSC[C@@H](C(=O)N[C@@H](CCN)C(=O)NCCCCCCCCCCC(=O)O)NC(=O)[C@H](CO)NC(=O)[C@H](C(C)C)NC(=O)[C@H](CC3CCCCC3)NC(=O)[C@H](CCN)NC(=O)[C@@H](CC(C)C)NC(=O)[C@H](C)N(C)C(=O)[C@H](Cc3ccc(OCC(=O)O)cc3)NC(=O)[C@H](Cc3ccc(-c4ccccc4)cc3)NC(=O)[C@H](C(C)C)NC2=O)c1` [Example 1265] ({CH2CO}-Y(Carboxymethyl)Y(Carboxymethyl)D[Phe(3-Me)]V[Bip]Y(Carboxymethyl)[NMeA][dL][Dab][Cha]VSC[Dab][Aun]-OH; thioether N-14) is 3.5-fold higher in IC50: 12.7 nM for the first, 44.1 nM for the second. The first is the more potent here.

Compared with `Cc1cccc(C[C@@H]2NC(=O)[C@H](CC(=O)O)NC(=O)[C@H](Cc3ccc(OCC(=O)O)cc3)NC(=O)[C@H](Cc3ccc(OCC(=O)O)cc3)NC(=O)CSC[C@@H](C(=O)N[C@@H](CCN)C(=O)NCCCCCCCCCCC(=O)O)NC(=O)[C@H]([C@@H](C)O)NC(=O)[C@H](C(C)C)NC(=O)[C@H](CC3CCCCC3)NC(=O)[C@H](CCN)NC(=O)[C@@H](CC(C)C)NC(=O)[C@H](C)N(C)C(=O)[C@H](Cc3ccc(OCC(=O)O)cc3)NC(=O)[C@H](Cc3ccc(-c4ccccc4)cc3)NC(=O)[C@H](C(C)C)NC2=O)c1` [Example 1264] ({CH2CO}-Y(Carboxymethyl)Y(Carboxymethyl)D[Phe(3-Me)]V[Bip]Y(Carboxymethyl)[NMeA][dL][Dab][Cha]VTC[Dab][Aun]-OH; thioether N-14), `CC(C)C[C@H]1NC(=O)[C@H](C)N(C)C(=O)[C@H](Cc2ccc(OCC(=O)O)cc2)NC(=O)[C@H](Cc2ccc(-c3ccccc3)cc2)NC(=O)[C@H](Cc2ccc(OCC(=O)O)cc2)NC(=O)[C@H]([C@@H](C)c2c[nH]c3ccccc23)NC(=O)[C@H](CC(=O)O)NC(=O)[C@H](Cc2ccc(OCC(=O)O)cc2)NC(=O)[C@H](CCCNC(=N)N)NC(=O)CSC[C@@H](C(=O)N[C@@H](CCN)C(=O)NCCCCCCCCCCC(=O)O)NC(=O)[C@H]([C@@H](C)O)NC(=O)[C@H](C(C)C)NC(=O)[C@H](CC2CCCCC2)NC(=O)[C@H](CCN)NC1=O` [Example 1273] ({CH2CO}-RY(Carboxymethyl)D[Trp(βS-Me)]Y(Carboxymethyl)[Bip]Y(Carboxymethyl)[NMeA][dL][Dab][Cha]VTC[Dab][Aun]-OH; thioether N-14) is 10-fold higher in IC50: 31.8 nM for the first, 327 nM for the second.

`Cc1cccc(C[C@@H]2NC(=O)[C@H](CC(=O)O)NC(=O)[C@H](Cc3ccc(OCC(=O)O)cc3)NC(=O)[C@H](CCCNC(=N)N)NC(=O)CSC[C@@H](C(=O)N[C@@H](CCN)C(=O)NCCCCCCCCCCC(=O)O)NC(=O)[C@@H](CO)NC(=O)[C@H](C(C)C)NC(=O)[C@H](CC3CCCCC3)NC(=O)[C@H](CCN)NC(=O)[C@@H](CC(C)C)NC(=O)[C@H](C)N(C)C(=O)[C@H](Cc3ccc(OCC(=O)O)cc3)NC(=O)[C@H](Cc3ccc(-c4ccccc4)cc3)NC(=O)[C@H](C(C)C)NC2=O)c1` [Example 1266] ({CH2CO}-RY(Carboxymethyl)D[Phe(3-Me)]V[Bip]Y(Carboxymethyl)[NMeA][dL][Dab][Cha]V[dS]C[Dab][Aun]-OH; thioether N-14) and `Cc1cccc(C[C@@H]2NC(=O)[C@H](CC(=O)O)NC(=O)[C@H](Cc3ccc(CCC(=O)O)cc3)NC(=O)[C@H](CCCNC(=N)N)NC(=O)CSC[C@@H](C(=O)N[C@@H](CCN)C(=O)NCCCCCCCCCCC(=O)O)NC(=O)[C@@H](CO)NC(=O)[C@H](C(C)C)NC(=O)[C@H](CC3CCCCC3)NC(=O)[C@H](CCN)NC(=O)[C@@H](CC(C)C)NC(=O)[C@H](C)N(C)C(=O)[C@H](Cc3ccc(O)cc3)NC(=O)[C@H](Cc3ccc(-c4ccccc4)cc3)NC(=O)[C@H](C(C)C)NC2=O)c1` [Example 1267] ({CH2CO}-R[Phe(4-CH2CH2COOH)]D[Phe(3-Me)]V[Bip]Y[NMeA][dL][Dab][Cha]V[dS]C[Dab][Aun]-OH; thioether N-14) are within 1.5-fold of each other in IC50: 26.6 nM for the first, 22.8 nM for the second.

Compared with `Cc1cccc(C[C@@H]2NC(=O)[C@H](CC(=O)O)NC(=O)[C@H](Cc3ccc(CCC(=O)O)cc3)NC(=O)[C@H](CCNC(=O)C(C)(C)C)NC(=O)CSC[C@@H](C(=O)N[C@@H](CCN)C(=O)NCCCCCCCCCCC(=O)O)NC(=O)[C@H]([C@@H](C)O)NC(=O)[C@H](C(C)C)NC(=O)[C@H](CC3CCCCC3)NC(=O)[C@H](CCN)NC(=O)[C@@H](CC(C)C)NC(=O)[C@H](C)N(C)C(=O)[C@H](Cc3ccc(OCC(=O)O)cc3)NC(=O)[C@H](Cc3ccc(-c4ccccc4)cc3)NC(=O)[C@H](Cc3ccc(C(=O)O)cc3)NC2=O)c1` [Example 1269] ({CH2CO}-[Dab](Piv)[Phe(4-CH2CH2COOH)]D[Phe(3-Me)][Phe(4-COOH)][Bip]Y(Carboxymethyl)[NMeA][dL][Dab][Cha]VTC[Dab][Aun]-OH; thioether N-14), `Cc1cccc(C[C@@H]2NC(=O)[C@H](CC(=O)O)NC(=O)[C@H](Cc3ccc(OCC(=O)O)cc3)NC(=O)[C@H](CCNC(=O)C(C)(C)C)NC(=O)CSC[C@@H](C(=O)N[C@@H](CCN)C(=O)NCCCCCCCCCCC(=O)O)NC(=O)[C@H](CCC(N)=O)NC(=O)[C@H](C(C)C)NC(=O)[C@H](CC3CCCCC3)NC(=O)[C@H](CCN)NC(=O)[C@@H](CC(C)C)NC(=O)[C@H](C)N(C)C(=O)[C@H](Cc3ccc(OCC(=O)O)cc3)NC(=O)[C@H](Cc3ccc(-c4ccccc4)cc3)NC(=O)[C@H](Cc3ccc(C(=O)O)cc3)NC2=O)c1` [Example 1270] ({CH2CO}-[Dab](Piv)Y(Carboxymethyl)D[Phe(3-Me)][Phe(4-COOH)][Bip]Y(Carboxymethyl)[NMeA][dL][Dab][Cha]VQC[Dab][Aun]-OH; thioether N-14) is 3.2-fold higher in IC50: 19.2 nM for the first, 61.9 nM for the second. The first is the more potent here.

`CC(C)C[C@@H]1NC(=O)[C@H]([C@@H](C)c2c[nH]c3ccccc23)NC(=O)[C@H](CC(=O)O)NC(=O)[C@H](Cc2ccc(OCC(=O)O)cc2)NC(=O)[C@H](Cc2ccc(OCC(=O)O)cc2)NC(=O)CSC[C@@H](C(=O)NC2(C(=O)NCCOCCOCC(=O)NCCCCCCCCCCC(=O)O)CC2)NC(=O)[C@H](CCCNC(=N)N)NC(=O)[C@H](C(C)C)NC(=O)[C@H](CC2CCCCC2)NC(=O)[C@H](CCN)NC(=O)[C@@H](CC(C)C)NC(=O)[C@H](C)N(C)C(=O)[C@H](C(C)C)NC(=O)[C@H](Cc2ccc(-c3ccccc3)cc2)NC1=O` [Example 1271] ({CH2CO}-Y(Carboxymethyl)Y(Carboxymethyl)D[Trp(βS-Me)]L[Bip]V[NMeA][dL][Dab][Cha]VRC[Ac3c][AEEA][Aun]-OH; thioether N-14) and `CC(C)C[C@@H]1NC(=O)[C@H]([C@@H](C)c2c[nH]c3ccccc23)NC(=O)[C@H](CC(=O)O)NC(=O)[C@H](Cc2ccc(OCC(=O)O)cc2)NC(=O)[C@H](Cc2ccc(OCC(=O)O)cc2)NC(=O)CSC[C@@H](C(=O)NC2(C(=O)NCCOCCOCC(=O)NCCCCCCCCCCC(=O)O)CC2)NC(=O)[C@H](CCC(N)=O)NC(=O)[C@H](C(C)C)NC(=O)[C@H](CC2CCCCC2)NC(=O)[C@H](CCN)NC(=O)[C@@H](CC(C)C)NC(=O)[C@H](C)N(C)C(=O)[C@H](C(C)C)NC(=O)[C@H](Cc2ccc(-c3ccccc3)cc2)NC1=O` [Example 1272] ({CH2CO}-Y(Carboxymethyl)Y(Carboxymethyl)D[Trp(βS-Me)]L[Bip]V[NMeA][dL][Dab][Cha]VQC[Ac3c][AEEA][Aun]-OH; thioether N-14) are within 1.5-fold of each other in IC50: 39.1 nM for the first, 40.3 nM for the second.

Compared with `Cc1cccc(C[C@@H]2NC(=O)[C@H](CC(=O)O)NC(=O)[C@H](Cc3ccc(OCC(=O)O)cc3)NC(=O)[C@H](CCCNC(N)=O)NC(=O)CSC[C@@H](C(=O)N[C@@H](CCN)C(=O)NCCCCCCCCCCC(=O)O)NC(=O)[C@H](CO)NC(=O)[C@H](C(C)C)NC(=O)[C@H](CC3CCCCC3)NC(=O)[C@H](CCN)NC(=O)[C@@H](CC(C)C)NC(=O)[C@H](C)N(C)C(=O)[C@H](Cc3ccc(O)cc3)NC(=O)[C@H](Cc3ccc(-c4ccccc4)cc3)NC(=O)[C@H](Cc3ccc(OCC(=O)O)cc3)NC2=O)c1` [Example 1275] ({CH2CO}-[Cit]Y(Carboxymethyl)D[Phe(3-Me)]Y(Carboxymethyl)[Bip]Y[NMeA][dL][Dab][Cha]VSC[Dab][Aun]-OH; thioether N-14), `Cc1cccc(C[C@@H]2NC(=O)[C@H](CC(=O)O)NC(=O)[C@H](Cc3ccc(OCC(=O)O)cc3)NC(=O)[C@H](CCc3ccccc3)NC(=O)CSC[C@@H](C(=O)N[C@@H](CCN)C(=O)NCCCCCCCCCCC(=O)O)NC(=O)[C@H](CO)NC(=O)[C@H](C(C)C)NC(=O)[C@H](CC3CCCCC3)NC(=O)[C@H](CCN)NC(=O)[C@@H](CC(C)C)NC(=O)[C@H](C)N(C)C(=O)[C@H](Cc3ccc(O)cc3)NC(=O)[C@H](Cc3ccc(-c4ccccc4)cc3)NC(=O)[C@H](Cc3ccc(OCC(=O)O)cc3)NC2=O)c1` [Example 1276] ({CH2CO}-[hPhe]Y(Carboxymethyl)D[Phe(3-Me)]Y(Carboxymethyl)[Bip]Y[NMeA][dL][Dab][Cha]VSC[Dab][Aun]-OH; thioether N-14) is 1.6-fold lower in IC50: 223 nM for the first, 142 nM for the second.
